15 compounds from US12441725B2, “ISO-citrate dehydrogenase (IDH) inhibitor” (ZHEJIANG METON PHARMACEUTICAL CO., LTD, priority 2019, dated 2025) can be followed below.

Usually IC50 stands for the midpoint of a concentration-inhibition curve.

Bounds are passed on as bounds.

Assay [1] concerns the target T1, IDH1 R132H (Homo sapiens, UniProt O75874, R132H).
T1 construct: 6xHis
In words: Biochemical assay for IDH inhibition (NADPH fluorescence), mutant IDH1 R132H. The conditions noted are these: 50 nM IDH1-R132H, 1 hour pre-incubation, in triplet. The method in brief:
(§1)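 Mutant enzyme (25 nM R132C or 50 nM R132H) was preincubated 1 h at room temperature with compound in pH 7.5 Tris buffer containing 1.33 mM α-KG, and the reaction was then started with NADPH (80 μM solution). NADPH consumption was followed by fluorescence (Ex 340/Em 460 nm) for 15 min. IC50 was derived from background-corrected linear rates relative to vehicle, run in triplicate.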

The target of assay [2] is T2, IDH (endogenous IDH1 R132C) in HT1080 cell (Homo sapiens, UniProt O75874, R132C).
T2 construct: which harbor endogenous heterozygous IDH1 R132C and R132H mutation respectively and accumulate D-2-HG
In words: Cell-based assay for IDH inhibition (decrease of D-2-HG) in HT1080 cells. The conditions noted are these: human fibrosarcoma cell line HT1080, 16 hours treatment, D-2-HG by LC-MS, in triplet. The method in brief:
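HT1080 cells with endogenous IDH1 R132C, grown in DMEM/10% FBS, treated with compound at several concentrations for 16 h. Metabolites extracted in cold 40% methanol/40% acetonitrile and D-2-HG measured by HILIC LC-MS/MS, normalized to glutamate. IC50 from D-2-HG relative to DMSO controls; run in triplicate.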

The target of assay [3] is T3, IDH1 R132C (Homo sapiens, UniProt O75874, R132C).
T3 construct: 6xHis
Nature of the assay: Biochemical assay for IDH inhibition (NADPH fluorescence), mutant IDH1 R132C. The conditions noted are these: 25 nM IDH1-R132C, 1 hour pre-incubation, in triplet. The method in brief: as §1

T2 sequence (O75874 2-414 R132C): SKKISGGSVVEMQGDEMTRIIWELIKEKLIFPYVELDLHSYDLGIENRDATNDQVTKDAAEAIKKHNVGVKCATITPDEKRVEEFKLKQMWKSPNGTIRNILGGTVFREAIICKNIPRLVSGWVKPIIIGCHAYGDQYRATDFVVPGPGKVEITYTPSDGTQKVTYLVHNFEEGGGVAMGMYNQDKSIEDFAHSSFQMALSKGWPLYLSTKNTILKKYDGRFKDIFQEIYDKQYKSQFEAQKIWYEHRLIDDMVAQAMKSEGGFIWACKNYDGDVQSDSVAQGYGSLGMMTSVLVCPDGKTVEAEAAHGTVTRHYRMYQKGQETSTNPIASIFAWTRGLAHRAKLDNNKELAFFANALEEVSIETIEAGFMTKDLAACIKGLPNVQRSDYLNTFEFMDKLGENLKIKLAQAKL
T1 sequence (O75874 whole entry R132H): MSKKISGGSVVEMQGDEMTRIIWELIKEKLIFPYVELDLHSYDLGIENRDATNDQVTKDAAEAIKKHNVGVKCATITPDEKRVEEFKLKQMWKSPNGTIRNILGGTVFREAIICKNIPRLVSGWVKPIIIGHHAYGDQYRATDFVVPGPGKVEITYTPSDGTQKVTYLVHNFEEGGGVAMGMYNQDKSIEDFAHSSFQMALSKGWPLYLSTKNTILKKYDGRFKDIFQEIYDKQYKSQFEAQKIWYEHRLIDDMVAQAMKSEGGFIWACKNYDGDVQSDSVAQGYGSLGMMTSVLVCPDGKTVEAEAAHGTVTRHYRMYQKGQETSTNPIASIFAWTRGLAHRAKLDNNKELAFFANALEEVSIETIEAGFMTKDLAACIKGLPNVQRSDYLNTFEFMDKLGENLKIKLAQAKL
T3 sequence (O75874 whole entry R132C): as the sequence (O75874 whole entry R132H) above, with H132C counted along it

As to `CCN1Cc2c(ccnc2N[C@@H](C)c2cc(F)c(-c3cc(OC(C)(C)C)ncc3C)cc2F)C1=O` [Compound 151, (S)-4-((1-(4-(2-(tert-butoxy)-5-methylpyridin-4-yl)-2,5-difluorophenyl)ethyl)amino)-2-ethyl-2,3-dihydro-1H-pyrrolo[3,4-c]pyridin-1-one], the IC50 in assay [1] is under 100 nM; in assay [2] it was under 100 nM; in assay [3], 100 to 500 nM.

For the compound `CCN1Cc2c(ccnc2N[C@@H](C)c2cc(F)c(-c3cc(OC(C)(C)C)c(Cl)cn3)cc2F)C1=O` [Compound 152, (S)-4-((1-(4-(4-(tert-butoxy)-5-chloropyridin-2-yl)-2,5-difluorophenyl)ethyl)amino)-2-ethyl-2,3-dihydro-1H-pyrrolo[3,4-c]pyridin-1-one], the IC50 in assay [1], in assay [2] and in assay [3] was under 100 nM each time.

Regarding `CCN1Cc2c(ccnc2N[C@@H](C)c2cc(F)c(-c3cc(C(C)(C)F)c(OC)nn3)cc2F)C1=O` [Compound 153, (S)-4-((1-(2,5-difluoro-4-(5-(2-fluoropropan-2-yl)-6-methoxypyridazin-3-yl)phenyl)ethyl)amino)-2-ethyl-2,3-dihydro-1H-pyrrolo[3,4-c]pyridin-1-one], the IC50 in assay [1], in assay [2] and in assay [3] was under 100 nM throughout.

Consider `CCN1Cc2c(ccnc2N[C@@H](C)c2cc(F)c(-c3ccnc(C(C)(C)C#N)c3)cc2F)C1=O` [Compound 154, (S)-2-(4-(4-(1-((2-ethyl-1-oxo-2,3-dihydro-1H-pyrrolo[3,4-c]pyridin-4-yl)amino)ethyl)-2,5-difluorophenyl)pyridin-2-yl)-2-methylpropanenitrile], for which the IC50 in assay [1] lay in the range of 100 to 500 nM; in assay [2] it was 100 to 500 nM; in assay [3] it was 500 to 1000 nM.

Consider `CCN1Cc2c(ccnc2N[C@@H](C)c2cc(F)c(-c3cc(C(F)(F)F)cc(F)n3)cc2F)C1=O` [Compound 155, (S)-4-((1-(2,5-difluoro-4-(6-fluoro-4-(trifluoromethyl)pyridin-2-yl)phenyl)ethyl)amino)-2-ethyl-2,3-dihydro-1H-pyrrolo[3,4-c]pyridin-1-one], for which the IC50 in assay [1] was under 100 nM; in assay [2], 100 to 500 nM; in assay [3], 100 to 500 nM.

As to `CCN1Cc2c(ccnc2N[C@@H](C)c2cc(F)c(-c3cc(C(C)(C)F)cc(O)n3)cc2F)C1=O` [Compound 156, (S)-4-((1-(2,5-difluoro-4-(4-(2-fluoropropan-2-yl)-6-hydroxypyridin-2-yl)phenyl)ethyl)amino)-2-ethyl-2,3-dihydro-1H-pyrrolo[3,4-c]pyridin-1-one], the results for the IC50 in assay [1], in assay [2] and in assay [3] were 100 to 500 nM, 100 to 500 nM and 500 to 1000 nM, respectively.

On to `CCN1Cc2c(ccnc2N[C@@H](C)c2cc(F)c(-c3cc(C(F)(F)F)cc(O)n3)cc2F)C1=O` [Compound 157, (S)-4-((1-(2,5-difluoro-4-(6-hydroxy-4-(trifluoromethyl)pyridin-2-yl)phenyl)ethyl)amino)-2-ethyl-2,3-dihydro-1H-pyrrolo[3,4-c]pyridin-1-one], for which the IC50 in assay [1] is 100 to 500 nM; in assay [2], over 1000 nM; in assay [3] it was over 1000 nM.

Regarding `COCCN1Cc2c(ccnc2N[C@@H](C)c2cc(F)c(-c3ccnc(C(C)(C)C)c3)cc2F)C1=O` [Compound 158, (S)-4-((1-(4-(2-(tert-butyl)pyridin-4-yl)-2,5-difluorophenyl)ethyl)amino)-2-(2-methoxyethyl)-2,3-dihydro-1H-pyrrolo[3,4-c]pyridin-1-one], the IC50 in assay [1] is 100 to 500 nM; in assay [2], over 1000 nM; in assay [3], over 1000 nM.

`C[C@H](Nc1nccc2c1CN(CCO)C2=O)c1cc(F)c(-c2ccnc(C(C)(C)C)c2)cc1F` [Compound 159, (S)-4-((1-(4-(2-(tert-butyl)pyridin-4-yl)-2,5-difluorophenyl)ethyl)amino)-2-(2-hydroxyethyl)-2,3-dihydro-1H-pyrrolo[3,4-c]pyridin-1-one]: the 50% inhibitory concentration (IC50) in assay [1], in assay [2] and in assay [3] was 100 to 500 nM throughout.

As to `CCN1Cc2c(ccnc2N[C@@H](C)c2cc(F)c(-c3cn(C(C)(C)C)cn3)cc2F)C1=O` [Compound 160, (S)-4-((1-(4-(1-(tert-butyl)-1H-imidazol-4-yl)-2,5-difluorophenyl)ethyl)amino)-2-ethyl-2,3-dihydro-1H-pyrrolo[3,4-c]pyridin-1-one], the concentration for half-maximal inhibition (IC50) in assay [1], in assay [2] and in assay [3] was 100 to 500 nM each time.

`CCN1Cc2c(ccnc2N[C@@H](C)c2cc(F)c(-c3cc(C(C)(C)F)c(OCOC)cn3)cc2F)C1=O` [Compound 161, (S)-4-((1-(2,5-difluoro-4-(4-(2-fluoropropan-2-yl)-5-(methoxymethoxy)pyridin-2-yl)phenyl)ethyl)amino)-2-ethyl-2,3-dihydro-1H-pyrrolo[3,4-c]pyridin-1-one]: the IC50 in assay [1], in assay [2] and in assay [3] was under 100 nM each time.

Take `CCN1Cc2c(ccnc2N[C@@H](C)c2cc(F)c(-c3cc(C(C)(C)F)c(O)cn3)cc2F)C1=O` [Compound 162, (S)-4-((1-(2,5-difluoro-4-(4-(2-fluoropropan-2-yl)-5-hydroxypyridin-2-yl)phenyl)ethyl)amino)-2-ethyl-2,3-dihydro-1H-pyrrolo[3,4-c]pyridin-1-one]: the IC50 in assay [1], in assay [2] and in assay [3] was 100 to 500 nM each time.

`CCN1Cc2c(ccnc2N[C@@H](C)c2cc(F)c(-c3cc(C(C)(C)F)c(C#N)cn3)cc2F)C1=O` [Compound 163, (S)-6-(4-(1-((2-ethyl-1-oxo-2,3-dihydro-1H-pyrrolo[3,4-c]pyridin-4-yl)amino)ethyl)-2,5-difluorophenyl)-4-(2-fluoropropan-2-yl)nicotinonitrile]: the IC50 is under 100 nM in assay [1], under 100 nM in assay [2] and 100 to 500 nM in assay [3].

On to `CCN1Cc2c(ccnc2N[C@@H](C)c2cc(F)c(-c3cc(C(F)(F)F)c(O)cn3)cc2F)C1=O` [Compound 164, (S)-4-((1-(2,5-difluoro-4-(5-hydroxy-4-(trifluoromethyl)pyridin-2-yl)phenyl)ethyl)amino)-2-ethyl-2,3-dihydro-1H-pyrrolo[3,4-c]pyridin-1-one], for which the IC50 in assay [1] was in the range of 100 to 500 nM; in assay [2], 500 to 1000 nM; in assay [3] it was 500 to 1000 nM.

With `CCN1Cc2c(ccnc2N[C@@H](C)c2cc(F)c(-c3cc(C(F)(F)F)c(OC)cn3)cc2F)C1=O` [Compound 165, (S)-4-((1-(2,5-difluoro-4-(5-methoxy-4-(trifluoromethyl)pyridin-2-yl)phenyl)ethyl)amino)-2-ethyl-2,3-dihydro-1H-pyrrolo[3,4-c]pyridin-1-one], the IC50 in assay [1], in assay [2] and in assay [3] was under 100 nM each time.
